Measurements: patent US6368788B1 (priority 1987, dated 2002)
Like-named read-outs stand apart in the source and are kept apart here. Marks after values point to notes of the source that are not given here.

Columns and labels:
[1] = Lymphatic infections (lymphangitis); type: in vivo; details: 100 μg im, 1 μg/kg intranasally or intralymphatically
[2] = Allergies (hayfever protocol); parameters: species or system human; details: in vivo
Method: Twenty nine patients (29) with various diagnosed allergies were treated on a daily basis for 5-7 days with L-Glu-L-Trp at a dose of […] delivered im or by the intranasal route. Seventeen patients (17) in the control group received conventional therapy.

Pseudomonas aeruginosa = experiment: Survival after acute peritonitis with LD100 dose of Pseudomonas aeruginosa; type: in vivo, mice
Plasmodium falciparum = experiment: Relapsing tropical malaria; type: in vivo, human; parameters: IgG / IgA / IgM: unit not given here
[3] = Complications of pregnancy: toxemia (Protocol B); parameters: species or system human; details: in vivo
Method: L-Glu-L-Trp was administered im at 100 μg daily, or 1 μg/kg intranasally, for 5-10 days.

[4] = test system: peripheral blood lymphocytes; experiment: Protocol A3 Group 1B: atypical pyoderma; type: in vivo, human
[5] = Post-term women (Protocol D); parameters: species or system human; details: in vivo
Method: Nineteen patients (19 women) post-term were treated with L-Glu-L-Trp and 48 women received conventional post-term treatment as a control group.

Corneal diseases = details: in vivo
influenza = details: vs control group
Method: Sixty-six (66) hospitalized patients between the ages 18-20 years with confirmed influenza infections were admitted into the trial. Of the patients, 12 were determined to be severely infected, and the remaining 54 seriously infected and in need of hospitalization.

C. albicans = type: in vivo, mice; details: PDR
[6] = test system: E-receptors on aged thymocytes; experiment: Expression of E-receptors on aged thymocytes; type: cell-based, guinea pigs; details: for E-RFC (%): aged thymocytes
Excerpt: Effects of L-Glu-L-Trp on expression of E-receptors on “aged” thymocytes was investigated in a manner similar to that in EXAMPLE 26, above, but using thymocytes obtained from old male guinea pigs (700-800 g). In aged animals it is recognized that the percentage of thymocytes forming rosettes with rabbit erythrocytes is reduced, and cell surface E-receptors are likewise reduced. For these studies aged thymocytes were isolated in Medium 199 from 42 guinea pigs, and E-RFC determined as described by Stadecker, M. J., et al., J. Immunol. 111(8):4061-4065 (1973), incorporated herein by reference. L-Glu-L-Trp was dissolved in 0.9% (w/v) NaCl and added to cultures of thymocytes at concentrations of 1, 0.01, and 0.0001 mg/ml.

[7] = test system: peripheral blood lymphocytes; experiment: Breast cancer patients after radiotherapy treated with L-Glu-L-Trp 100 μg im daily; type: in vivo, human
Method: Thirty six patients with breast cancer were treated with conventional radiation therapy (i.e., single doses of about 2-3 Gy daily for 10 days; total cumulative patient dose of 20-30 Gy). Following radiotherapy the patients were treated with L-Glu-L-Trp by injection of daily dosages im of 100 μg. The patients had been previously treated with radiation therapy (single doses 2 Gy; total dose 20-30 Gy).

[8] = malaria, after L-Glu-L-Trp Therapy (n = 33)
[9] = Group 1B atypical pyoderma, after L-Glu-L-Trp Therapy (n = 10)

L-Glu-L-Trp
Clinical outcome [1]: controls the progression of lymphangitis | Clinical outcome [2]: disappearance of allergic reactions | Percentage Survivors (Pseudomonas aeruginosa; 24 hours after injection, Glu-Trp dose 10 μg/kg (alone or + Gentamycin 1 MED)): 55.6* % | Percentage Survivors (Pseudomonas aeruginosa; 24 hours after injection, Glu-Trp dose 100 μg/kg (alone or + Gentamycin 1 MED)): 66.7*† % | Percentage Survivors (Pseudomonas aeruginosa; 24 hours after injection, Glu-Trp dose 1000 μg/kg (alone or + Gentamycin 1 MED)): 77.8*† % | Percentage Survivors (Pseudomonas aeruginosa; 48 hours after injection, Glu-Trp dose 10 μg/kg (alone or + Gentamycin 1 MED)): 5.6% | Percentage Survivors (Pseudomonas aeruginosa; 48 hours after injection, Glu-Trp dose 100 μg/kg (alone or + Gentamycin 1 MED)): 38.9* % | Percentage Survivors (Pseudomonas aeruginosa; 48 hours after injection, Glu-Trp dose 1000 μg/kg (alone or + Gentamycin 1 MED)): 44.4* % | Percentage Survivors (Pseudomonas aeruginosa; 96 hours after injection, Glu-Trp dose 10 μg/kg (alone or + Gentamycin 1 MED)): 5.6% | Percentage Survivors (Pseudomonas aeruginosa; 96 hours after injection, Glu-Trp dose 100 μg/kg (alone or + Gentamycin 1 MED)): 38.9% | Percentage Survivors (Pseudomonas aeruginosa; 96 hours after injection, Glu-Trp dose 1000 μg/kg (alone or + Gentamycin 1 MED)): 44.4* % | Survival (Pseudomonas aeruginosa; alone or with Gentamycin): significantly increased the percentage of mice surviving a lethal challenge of Pseudomonas | Clinical outcome (Plasmodium falciparum; in vivo): decreased incidence of disease relapses | FDP and ATIII levels (Plasmodium falciparum; in vivo): the levels of FDP decreased and ATIII increased | PBL and T- and B-lymphocyte counts (Plasmodium falciparum; in vivo): increased PBL and T- and B-lymphocyte counts to normal or supra-normal values | ATIII (%) (Plasmodium falciparum; [8]): 98 ± 1.38% | B-Lymphocytes (Plasmodium falciparum; [8]): 0.53 ± 0.02 ×10^9/L | B-Lymphocytes % Normal Value (Plasmodium falciparum; [8]): (115%) | Clotting time (whole blood) (Plasmodium falciparum; [8]): 141 ± 2.4^ | FDP (Plasmodium falciparum; [8]): 23 ± 1.8 µg/mL | Fibrinogen Concentration (Plasmodium falciparum; [8]): 3.4 ± 0.1 g/L | Hagemann factor dependent fibrinolysis (Plasmodium falciparum; [8]): 25 ± 2.58 | IgA (Plasmodium falciparum; [8]): 138 ± 6.0 | IgA % Normal Value (Plasmodium falciparum; [8]): (140%) | IgG (Plasmodium falciparum; [8]): 187 ± 1.9 | IgG % Normal Value (Plasmodium falciparum; [8]): (140%) | IgM (Plasmodium falciparum; [8]): 193 ± 9.0 | IgM % Normal Value (Plasmodium falciparum; [8]): (152%) | Kaolin clotting time (Plasmodium falciparum; [8]): 58 ± 0.3 | Leukocytes (Plasmodium falciparum; [8]): 9.0 ± 0.14 ×10^9/L | Leukocytes % Normal Value (Plasmodium falciparum; [8]): (155%) | Lymphocytes (Plasmodium falciparum; [8]): 2.57 ± 0.09 ×10^9/L | Lymphocytes % Normal Value (Plasmodium falciparum; [8]): (148%) | PTT (Plasmodium falciparum; [8]): 23 ± 0.2 | T-Lymphocytes (Plasmodium falciparum; [8]): 0.94 ± 0.06 ×10^9/L | T-Lymphocytes % Normal Value (Plasmodium falciparum; [8]): (106%) | Thrombotest (Plasmodium falciparum; [8]): 33 ± 0.5 | Total Fibrinogen (Plasmodium falciparum; [8]): 200 ± 2.7^ | Clinical outcome [3]: normalized blood pressure | B-Lymphocytes [4, 9]: 0.14 ± 0 ×10^9/L | B-Lymphocytes % Normal Value [4, 9]: (29%) | B-Lymphocytes (%) [4, 9]: 8.5 ± 1% | Basophils (%) [4, 9]: 0.1 ± 0% | Eosinophils (%) [4, 9]: 0.5 ± 1% | Erythrocytes [4, 9]: 4.1 ± 0.1 10^12/L | IgA [4, 9]: 2.21 ± 0 g/L | IgA % Normal Value [4, 9]: (117%) | IgG [4, 9]: 16.6 ± 2 g/L | IgG % Normal Value [4, 9]: (154%) | IgM [4, 9]: 1.64 ± 0 g/L | IgM % Normal Value [4, 9]: (104%) | Leukocytes [4, 9]: 6.2 ± 1 ×10^9/L | Leukocytes % Normal Value [4, 9]: (93%) | Lymphocytes [4, 9]: 2.14 ± 0 ×10^9/L | Lymphocytes % Normal Value [4, 9]: (76%) | Lymphocytes, % [4, 9]: 34.5 ± 4% | Monocytes, % [4, 9]: 2.3 ± 1.6% | Neutrophils, % [4, 9]: 66.5 ± 3.2% | T-Lymphocytes [4, 9]: 0.87 ± 0 ×10^9/L | T-Lymphocytes % Normal Value [4, 9]: (51%) | T-Lymphocytes (%) [4, 9]: 55.1 ± 6% | T-helper [4, 9]: 0.53 ± 0 ×10^9/L | T-helper % Normal Value [4, 9]: (40%) | T-helper (%) [4, 9]: 32.1 ± 3% | T-suppressor [4, 9]: 0.49 ± 0 ×10^9/L | T-suppressor % Normal Value [4, 9]: (126%) | T-suppressor (%) [4, 9]: 23.1 ± 5% | Blast Transform., Con-A ([4]; Group 1B, L-Glu-L-Trp Therapy): 96.1 ± 4 % of PBL | Blast Transform., PHA ([4]; Group 1B, L-Glu-L-Trp Therapy): 87.5 ± 5 % of PBL | Blast Transform., Staph-A ([4]; Group 1B, L-Glu-L-Trp Therapy): 75.3 ± 1 % of PBL | Clinical outcome ([4]; in vivo): did not turn out to be effective clinically | Clinical outcome [5]: resulting in a normal delivery | Clinical outcome (Corneal diseases): stimulates regeneration of corneal epithelium and restoration of visual acuity | Lower incidence of respiratory complications (influenza): 3.5 times | Germ Tube (%) (C. albicans; 0.1 μg/kg ip): 35* % | Germ Tube (%) (C. albicans; 1 μg/kg ip): 34* % | Germ Tube (%) (C. albicans; 10 μg/kg ip): 35* % | Germ Tube (%) (C. albicans; 100 μg/kg ip): 26* % | Germ Tube (%) (C. albicans; 300 μg/kg ip): 37% | Percentage of E-RFC ([6]; 1 mg/mL): statistically significant increase in the percentage of E-RFC | E-RFC (%) ([6]; Conc. 0.0001 mg/ml): 50.3 ± 4.2% | E-RFC (%) ([6]; Conc. 0.01 mg/ml): 47.8 ± 3.9% | E-RFC (%) ([6]; Conc. 1 mg/ml): 54.6 ± 4.2 % | B-lymphocyte (Ig+) [7]: 0.17 ± 0.02 ×10^9/L | B-lymphocyte (Ig+), Ratio Post-Rad/Pre-Rad Value [7]: (1.1) | B-lymphocyte (Ig+), Ratio Post-Treat/Pre-Treat Value [7]: (1.55) | C3-complement [7]: 0.68 ± 0.04 g/L | DTH to tuberculin [7]: 8.7 ± 0.6 mm | DTH to tuberculin, Ratio Post-Rad/Pre-Rad Value [7]: (1.2) | Granulocyte Cation Proteins [7]: 1.49 ± 0.12 | Granulocyte Phagocytic Index [7]: 3.7 ± 0.2 | LMI with ConA [7]: 71 ± 5 % | Lymphocytes [7]: 1.72 ± 0.21 ×10^9/L | Lymphocytes, Ratio Post-Rad/Pre-Rad Value [7]: (1.1) | Lymphocytes, Ratio Post-Treat/Pre-Treat Value [7]: (2.18) | OKT4+/OKT8+ [7]: 1.86 ± 0.17 | T-Lymphocytes [7]: 0.92 ± 0.12 ×10^9/L | T-helpers (OKT4+) [7]: 0.39 ± 0.04 ×10^9/L | T-helpers (OKT4+), Ratio Post-Rad/Pre-Rad Value [7]: (1.3) | T-helpers (OKT4+), Ratio Post-Treat/Pre-Treat Value [7]: (3.25) | T-lymphocytes, Ratio Post-Rad/Pre-Rad Value [7]: (1.1) | T-lymphocytes, Ratio Post-Treat/Pre-Treat Value [7]: (2.88) | T-suppressors (OKT8+) [7]: 0.21 ± 0.03 ×10^9/L | T-suppressors (OKT8+), Ratio Post-Rad/Pre-Rad Value [7]: (0.8) | T-suppressors (OKT8+), Ratio Post-Treat/Pre-Treat Value [7]: (1.31) | “Active” T-lymphocytes [7]: 0.52 ± 0.07 ×10^9/L | “Active” T-lymphocytes, Ratio Post-Rad/Pre-Rad Value [7]: (1.1) | “Active” T-lymphocytes, Ratio Post-Treat/Pre-Treat Value [7]: (2.74)
